The values below come from patent publication US10238756B2, “Lipid nanoparticles and uses thereof” (Tongli Biomedical Co., Ltd., priority 2015, dated 2019).

For data set [1], the system named is popliteal and sciatic lymph nodes. The data set can be described thus: In vivo pharmacokinetics of fluorescence intensity in draining lymph nodes detected through skin. As to conditions: subcutaneous, mouse foot, N = 3. As to the method:
(§1) In Vivo NIR Lymphatic Imaging in Mice. Mice were kept under pathogen-free conditions, exposed to a 12 h light-dark cycle, and received food ad libitum prior to imaging. All procedures were approved by the University of Washington Institutional Animal Care and Use Committee. Mice were anesthetized with 1.5% isoflurane, shaved to remove fur, and placed in a supine position on a 37° C. heat pad underneath an IVIS Lumina II NIR CCD camera (Perkin Elmer, Waltham, Mass.). Precontrast images were taken to confirm the absence of autofluorescence. Forty microliters of ICG-LNPs or free ICG was injected subcutaneously into the top of both rear feet. Immediately following injections, both feet were placed under gentle even pressure. Images were acquired for up to 120 min prior to euthanasia by cervical dislocation under anesthesia, upon which the skin was surgically opened to perform lymph node imaging.

The nature of data set [2]: Storage stability of ICG fluorescence in the dark at 4° C. Type of data set: physicochemical. The conditions noted are these: for % ICG fluorescence (8 months): stored in the dark at 4° C. for 8 months, % of initial fluorescence intensity, mean ± SD. As to the method: (§2) Fluorescence. Fluorescence measurements were performed on a Victor3 V 1420-040 Multilabel Plate Reader (Perkin-Elmer, Waltham, Mass.) with a tungsten-halogen continuous wave lamp (75 W, spectral range of 320-800 nm) and excitation (769±41 nm) and emission (832±37 nm) filters (Semrock, Rochester, N.Y.) using 100μL of sample in flat bottom, untreated 96-well plates (Grenier Bio-one, Monroe, N.C.).
(§3) Light Exposure and Storage Stability. […] For storage stability (FIG. 12), samples were placed in the dark at 4° C. for up to 313 days. […] The time-dependent decay of ICG fluorescence was analyzed on the basis of an exponential decay model with GraphPad Prism version 6.0 (GraphPad Software, San Diego, Calif.). The data were expressed as t½ (half-life) and k (rate constant).

For data set [3], the system named is lymph nodes and vessels in mice. Kind of data set: In vivo NIR lymphatic imaging in mice after subcutaneous foot injection. The conditions noted are these: for max NIRF intensity: mean ± SEM (N = 3-4). The arrangement: species or system mouse. As to the method: as §1
Data set [4] is described as follows: Light exposure stability of ICG fluorescence. Type of data set: physicochemical. As to the method: as §2, §3

`CC1(C)C(/C=C/C=C/C=C/C=C2\N(CCCCS(=O)(=O)O)c3ccc4ccccc4c3C2(C)C)=[N+](CCCCS(=O)(=O)[O-])c2ccc3ccccc3c21` [Free ICG, sodium 2-[7-[3,3-dimethyl-1-(4-sulfonatobutyl)benz[e]indolin-2-ylidene]hepta-1,3,5-trien-1-yl]-3,3-dimethyl-1-(4-sulfonatobutyl)benz] registered an AUC0-2 hr in data set [1] (fluorescence intensity in 1st draining lymph node (popliteal LN) through skin) of 61.65 ± 34.83 a.u.*min. Further, the Intensitymax in data set [1] (popliteal LN through skin) is reported as 0.66 ± 0.42 a.u. The k in data set [1] (popliteal LN through skin) was 0.19 ± 0.17 h⁻¹; in data set [4] (light exposure, exponential decay model), 19.2 ± 2.7 h⁻¹. The compound further gave a half-life in data set [2] (buffer, stored in the dark at 4° C., exponential decay model, (95% CI)) of 28.6 h. Further, the “% ICG fluorescence (8 months)” value in data set [2] is 0.3 +/− 0.2%; in data set [2] (listed as free ICG) it was 0.3±0.2%. The “k (rate constant)” value in data set [2] (stored in the dark at 4° C., exponential decay model) was 0.582 day⁻¹. The “No. of nodes detected” value in data set [3] (Axillary) is on record as 2; in data set [3] (Gastric) it was 1-2; in data set [3] (Medial iliac), 1-2; in data set [3] (Popliteal (Pop)) it was 1; in data set [3] (Sciatic), 0. Also, the “max NIRF intensity” value is recorded as 0.8 ± 0.1 10^−5 a.u in data set [3] (Axillary LN); 2.5 ± 1.3 10^−5 a.u in data set [3] (Gastric LN); 4.1 ± 1.6 10^−5 a.u in data set [3] (Medial iliac LN); 0.6 ± 0.2 10^−5 a.u in data set [3] (Pop afferent vessel); 0.6 ± 0.1 10^−5 a.u in data set [3] (Pop efferent vessel); 4.7 ± 2.2 10^−5 a.u in data set [3] (Popliteal (Pop) LN). Moreover, the “max NIRF intensity” value in data set [3] (Sciatic LN) is 0.6 ± 0.1 10^−5 a.u. In data set [3] (image collected below the skin, six minutes, 0.5 nmol of ICG subcutaneously in foot), the “ICG intensity mean of the popliteal lymph node” value was determined as 37.0. Further, the “fluorescence intensity, % of the initial value” in data set [4] (after 6 hours of light exposure, 2.0 μM ICG, overhead fluorescent light) is on record as 2.5±0.5%. Moreover, the half-life at 2 μM in data set [4] (aqueous solution (free ICG in solution), light exposure, exponential decay model) is 2.16 ± 0.3 min.

A word on the half-life: it is the time needed for the level to fall by half in the phase considered. Higher therefore signals slow loss.
